How the values were obtained:
[1] = target: Tyrosine-protein kinase JAK1 (Homo sapiens) (UniProt P23458)
[2] = target: Serine/threonine-protein kinase WNK2 (Homo sapiens) (UniProt Q9Y3S1)
[3] = target: Serine/threonine-protein kinase PRP4 homolog (Homo sapiens) (UniProt Q13523)
[4] = target: Serine/threonine-protein kinase WNK3 (Homo sapiens) (UniProt Q9BYP7)
[5] = target: Mitogen-activated protein kinase kinase kinase kinase 3 (Homo sapiens) (UniProt Q8IVH8)
[6] = system: Mast/stem cell growth factor receptor Kit (Homo sapiens), P10721 [V559D,V654A]
[7] = target: 5-hydroxytryptamine receptor 2A (Homo sapiens) (UniProt P28223); settings: Compound concentration 10.0 uM
[8] = system: Hepatocyte growth factor receptor (Homo sapiens), P08581 [M1250T]
[9] = target: Non-receptor tyrosine-protein kinase TYK2 (Homo sapiens) (UniProt P29597)
[10] = target: Tyrosine-protein kinase CSK (Homo sapiens) (UniProt P41240)
[11] = target: Alpha-1B adrenergic receptor (Homo sapiens) (UniProt P35368); settings: Compound concentration 10.0 uM
[12] = target: Tyrosine-protein kinase ZAP-70 (Homo sapiens) (UniProt P43403)
[13] = target: MAP/microtubule affinity-regulating kinase 3 (Homo sapiens) (UniProt P27448)
[14] = system: Receptor-type tyrosine-protein kinase FLT3 (Homo sapiens), P36888 [UNDEFINED MUTATION]
[15] = system: Tyrosine-protein kinase ABL1 (Homo sapiens), P00519 [F317L]
[16] = target: LIM domain kinase 1 (Homo sapiens) (UniProt P53667)
[17] = target: BMP-2-inducible protein kinase (Homo sapiens) (UniProt Q9NSY1)
[18] = target: Serine/threonine-protein kinase Nek3 (Homo sapiens) (UniProt P51956)
[19] = target: TGF-beta receptor type-2 (Homo sapiens) (UniProt P37173)
[20] = target: Cyclin-dependent kinase-like 1 (Homo sapiens) (UniProt Q00532)
[21] = target: Tyrosine-protein kinase JAK3 (Homo sapiens) (UniProt P52333)
[22] = target: Calcium/calmodulin-dependent protein kinase type II subunit delta (Homo sapiens) (UniProt Q13557)
[23] = target: SRSF protein kinase 2 (Homo sapiens) (UniProt P78362)
[24] = target: Receptor tyrosine-protein kinase erbB-2 (Homo sapiens) (UniProt P04626)
[25] = target: GABA-A receptor; anion channel (Rattus norvegicus) (UniProt O09028+P15431+P18506+P18508+P19969+P20236+P23574+P23576+P28471+P28473+P30191+P62813+P63079+P63138+Q91ZM7+Q9ES14); settings: Compound concentration 10.0 uM
[26] = system: Receptor-type tyrosine-protein kinase FLT3 (Homo sapiens), P36888 [D835V]
[27] = target: Homeodomain-interacting protein kinase 3 (Homo sapiens) (UniProt Q9H422)
[28] = target: Tyrosine-protein kinase ITK/TSK (Homo sapiens) (UniProt Q08881)
[29] = target: Mitogen-activated protein kinase kinase kinase 1 (Homo sapiens) (UniProt Q13233)
[30] = target: Mitogen-activated protein kinase kinase kinase kinase 4 (Homo sapiens) (UniProt O95819)
[31] = target: Serine/threonine-protein kinase RIO2 (Homo sapiens) (UniProt Q9BVS4)
[32] = target: Aurora kinase B (Homo sapiens) (UniProt Q96GD4)
[33] = target: NT-3 growth factor receptor (Homo sapiens) (UniProt Q16288)
[34] = target: Fibroblast growth factor receptor 1 (Homo sapiens) (UniProt P11362)
[35] = target: Serine/threonine-protein kinase mTOR (Homo sapiens) (UniProt P42345)
[36] = system: Phosphatidylinositol 4,5-bisphosphate 3-kinase catalytic subunit alpha isoform (Homo sapiens), P42336 [E542K]
[37] = target: Calcium/calmodulin-dependent protein kinase type IV (Homo sapiens) (UniProt Q16566)
[38] = target: Proto-oncogene tyrosine-protein kinase Src (Homo sapiens) (UniProt P12931)
[39] = target: TRAF2 and NCK-interacting protein kinase (Homo sapiens) (UniProt Q9UKE5)
[40] = target: Serine/threonine-protein kinase Nek6 (Homo sapiens) (UniProt Q9HC98)
[41] = system: Tyrosine-protein kinase ABL1 (Homo sapiens), P00519 [H396P]
[42] = target: 1-phosphatidylinositol 3-phosphate 5-kinase (Homo sapiens) (UniProt Q9Y2I7)
[43] = target: G protein-coupled receptor kinase 3 (Homo sapiens) (UniProt P35626)
[44] = Compound concentration 1000.0 nM
[45] = Compound concentration 100.0 nM

Chain of Serine/threonine-protein kinase RIO2 (Homo sapiens) (Q9BVS4 whole entry, looked up): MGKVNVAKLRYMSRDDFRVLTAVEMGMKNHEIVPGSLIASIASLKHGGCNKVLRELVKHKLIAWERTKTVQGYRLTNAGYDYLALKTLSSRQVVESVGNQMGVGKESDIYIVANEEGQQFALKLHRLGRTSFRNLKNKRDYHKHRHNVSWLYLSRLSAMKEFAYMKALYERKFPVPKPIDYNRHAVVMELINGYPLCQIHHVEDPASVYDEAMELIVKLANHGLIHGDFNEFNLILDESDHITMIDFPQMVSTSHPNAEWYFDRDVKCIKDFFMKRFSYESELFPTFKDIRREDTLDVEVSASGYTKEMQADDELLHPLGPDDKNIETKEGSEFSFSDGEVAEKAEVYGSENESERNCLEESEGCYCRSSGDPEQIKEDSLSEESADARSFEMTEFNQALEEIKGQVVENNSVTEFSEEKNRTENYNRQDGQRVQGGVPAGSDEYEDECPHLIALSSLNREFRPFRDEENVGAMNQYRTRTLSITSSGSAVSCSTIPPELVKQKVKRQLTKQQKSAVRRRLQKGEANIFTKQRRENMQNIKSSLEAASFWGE
Chain of 1-phosphatidylinositol 3-phosphate 5-kinase (Homo sapiens) (Q9Y2I7 whole entry): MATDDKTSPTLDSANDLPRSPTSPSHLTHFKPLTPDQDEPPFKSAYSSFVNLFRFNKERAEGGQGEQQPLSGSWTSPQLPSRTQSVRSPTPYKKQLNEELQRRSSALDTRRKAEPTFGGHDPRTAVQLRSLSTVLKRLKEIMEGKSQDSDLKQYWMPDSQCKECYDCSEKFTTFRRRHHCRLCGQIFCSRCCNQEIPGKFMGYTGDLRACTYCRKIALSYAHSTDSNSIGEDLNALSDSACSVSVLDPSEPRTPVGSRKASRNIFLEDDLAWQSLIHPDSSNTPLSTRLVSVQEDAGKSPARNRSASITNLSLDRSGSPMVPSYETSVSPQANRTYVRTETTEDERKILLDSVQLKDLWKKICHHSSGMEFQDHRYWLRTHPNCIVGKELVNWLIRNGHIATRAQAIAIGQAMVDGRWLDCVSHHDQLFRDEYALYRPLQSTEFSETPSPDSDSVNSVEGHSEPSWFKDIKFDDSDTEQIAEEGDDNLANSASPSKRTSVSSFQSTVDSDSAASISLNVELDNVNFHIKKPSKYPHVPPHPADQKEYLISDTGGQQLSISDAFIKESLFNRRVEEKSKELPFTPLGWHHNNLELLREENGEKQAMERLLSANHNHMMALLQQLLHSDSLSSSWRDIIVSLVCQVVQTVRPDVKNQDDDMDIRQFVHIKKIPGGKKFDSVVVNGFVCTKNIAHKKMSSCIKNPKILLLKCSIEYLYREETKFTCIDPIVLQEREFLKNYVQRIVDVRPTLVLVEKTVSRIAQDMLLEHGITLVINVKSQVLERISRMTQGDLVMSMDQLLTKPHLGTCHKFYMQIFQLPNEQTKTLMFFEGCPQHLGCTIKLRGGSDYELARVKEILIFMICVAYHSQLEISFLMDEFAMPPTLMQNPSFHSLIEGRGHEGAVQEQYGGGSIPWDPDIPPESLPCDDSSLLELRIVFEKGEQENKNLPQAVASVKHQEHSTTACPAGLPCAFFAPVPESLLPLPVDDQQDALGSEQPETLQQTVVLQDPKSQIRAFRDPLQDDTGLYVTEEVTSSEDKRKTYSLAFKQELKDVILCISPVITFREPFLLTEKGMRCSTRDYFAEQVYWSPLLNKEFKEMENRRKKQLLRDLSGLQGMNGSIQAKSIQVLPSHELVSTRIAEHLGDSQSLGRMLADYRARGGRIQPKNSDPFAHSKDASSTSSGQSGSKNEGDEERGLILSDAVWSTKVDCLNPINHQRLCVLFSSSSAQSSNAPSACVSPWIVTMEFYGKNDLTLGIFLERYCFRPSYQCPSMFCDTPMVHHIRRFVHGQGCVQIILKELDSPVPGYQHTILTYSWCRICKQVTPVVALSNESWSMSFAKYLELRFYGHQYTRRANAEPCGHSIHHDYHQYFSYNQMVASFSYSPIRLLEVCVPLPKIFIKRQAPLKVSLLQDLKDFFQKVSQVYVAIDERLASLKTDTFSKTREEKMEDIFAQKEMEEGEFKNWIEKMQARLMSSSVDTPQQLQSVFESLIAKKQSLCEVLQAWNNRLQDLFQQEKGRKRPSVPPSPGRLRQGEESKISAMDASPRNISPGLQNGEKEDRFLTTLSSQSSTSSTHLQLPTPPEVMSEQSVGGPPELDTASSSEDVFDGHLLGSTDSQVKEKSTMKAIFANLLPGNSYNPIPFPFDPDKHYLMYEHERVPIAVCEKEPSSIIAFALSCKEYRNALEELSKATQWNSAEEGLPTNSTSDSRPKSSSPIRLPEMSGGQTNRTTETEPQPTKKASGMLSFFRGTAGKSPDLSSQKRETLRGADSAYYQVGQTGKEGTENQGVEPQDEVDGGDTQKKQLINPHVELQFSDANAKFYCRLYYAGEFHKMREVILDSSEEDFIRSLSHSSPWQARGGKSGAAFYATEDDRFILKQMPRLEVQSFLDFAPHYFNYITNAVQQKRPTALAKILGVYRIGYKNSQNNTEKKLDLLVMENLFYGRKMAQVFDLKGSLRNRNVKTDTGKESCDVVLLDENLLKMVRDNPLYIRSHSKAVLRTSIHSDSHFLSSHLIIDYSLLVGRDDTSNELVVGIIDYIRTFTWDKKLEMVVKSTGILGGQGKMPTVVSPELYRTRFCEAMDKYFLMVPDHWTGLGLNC
Chain of Fibroblast growth factor receptor 1 (Homo sapiens) (P11362 22-822 limits assumed): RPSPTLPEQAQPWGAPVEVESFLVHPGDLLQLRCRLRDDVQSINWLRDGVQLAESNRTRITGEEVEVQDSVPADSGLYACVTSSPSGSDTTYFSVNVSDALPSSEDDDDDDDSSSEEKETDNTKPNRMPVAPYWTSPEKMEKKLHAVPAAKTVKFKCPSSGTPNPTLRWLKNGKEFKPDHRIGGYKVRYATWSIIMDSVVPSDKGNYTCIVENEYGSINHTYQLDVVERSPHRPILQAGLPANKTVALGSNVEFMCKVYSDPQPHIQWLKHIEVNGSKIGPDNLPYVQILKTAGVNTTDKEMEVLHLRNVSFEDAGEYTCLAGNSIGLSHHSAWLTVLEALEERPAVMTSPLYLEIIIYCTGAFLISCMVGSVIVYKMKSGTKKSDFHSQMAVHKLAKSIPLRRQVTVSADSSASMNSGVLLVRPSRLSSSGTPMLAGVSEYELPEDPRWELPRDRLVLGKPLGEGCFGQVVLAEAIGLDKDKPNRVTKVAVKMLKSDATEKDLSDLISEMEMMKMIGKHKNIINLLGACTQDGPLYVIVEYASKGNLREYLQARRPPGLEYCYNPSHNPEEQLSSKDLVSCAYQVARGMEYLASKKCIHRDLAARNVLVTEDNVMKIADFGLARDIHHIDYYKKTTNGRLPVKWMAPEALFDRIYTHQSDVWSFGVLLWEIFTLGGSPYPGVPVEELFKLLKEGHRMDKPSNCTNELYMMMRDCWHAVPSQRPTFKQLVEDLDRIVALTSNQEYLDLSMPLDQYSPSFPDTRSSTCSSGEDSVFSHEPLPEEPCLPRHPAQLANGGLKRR
Chain of Calcium/calmodulin-dependent protein kinase type IV (Homo sapiens) (Q16566 whole entry): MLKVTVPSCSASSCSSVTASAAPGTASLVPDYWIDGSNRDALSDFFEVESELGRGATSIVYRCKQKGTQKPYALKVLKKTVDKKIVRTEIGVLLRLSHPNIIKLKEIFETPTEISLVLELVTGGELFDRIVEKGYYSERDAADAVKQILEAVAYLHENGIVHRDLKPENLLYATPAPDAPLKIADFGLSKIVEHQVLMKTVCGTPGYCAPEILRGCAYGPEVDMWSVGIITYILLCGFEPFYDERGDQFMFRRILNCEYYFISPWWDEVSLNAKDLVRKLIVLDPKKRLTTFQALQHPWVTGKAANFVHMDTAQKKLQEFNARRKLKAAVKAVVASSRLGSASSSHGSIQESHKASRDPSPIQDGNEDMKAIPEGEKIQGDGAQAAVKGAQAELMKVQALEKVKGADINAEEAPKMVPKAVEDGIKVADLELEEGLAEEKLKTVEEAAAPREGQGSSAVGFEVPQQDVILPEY
Chain of NT-3 growth factor receptor (Homo sapiens) (Q16288 32-839 limits assumed): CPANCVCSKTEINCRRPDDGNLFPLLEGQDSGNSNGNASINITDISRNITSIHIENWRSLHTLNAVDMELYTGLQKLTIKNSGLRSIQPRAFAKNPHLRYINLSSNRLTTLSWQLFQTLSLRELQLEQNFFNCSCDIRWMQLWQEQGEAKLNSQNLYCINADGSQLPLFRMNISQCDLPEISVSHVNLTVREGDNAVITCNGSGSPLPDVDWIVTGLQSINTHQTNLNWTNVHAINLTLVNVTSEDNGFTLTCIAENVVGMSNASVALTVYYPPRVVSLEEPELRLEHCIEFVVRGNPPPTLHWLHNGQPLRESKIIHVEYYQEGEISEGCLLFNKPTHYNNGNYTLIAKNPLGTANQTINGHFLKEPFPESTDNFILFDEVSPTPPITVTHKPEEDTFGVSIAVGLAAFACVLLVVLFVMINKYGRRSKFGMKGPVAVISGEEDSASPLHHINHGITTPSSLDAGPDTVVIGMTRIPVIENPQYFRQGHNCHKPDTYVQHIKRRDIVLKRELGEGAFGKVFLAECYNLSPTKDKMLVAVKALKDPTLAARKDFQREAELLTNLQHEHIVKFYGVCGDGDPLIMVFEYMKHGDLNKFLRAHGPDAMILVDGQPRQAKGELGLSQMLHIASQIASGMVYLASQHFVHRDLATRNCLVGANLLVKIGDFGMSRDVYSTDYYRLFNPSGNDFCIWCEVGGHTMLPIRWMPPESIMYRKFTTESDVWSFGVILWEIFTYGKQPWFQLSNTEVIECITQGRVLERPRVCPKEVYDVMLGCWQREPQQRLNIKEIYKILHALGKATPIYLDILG
Chain of Serine/threonine-protein kinase Nek6 (Homo sapiens) (Q9HC98 whole entry): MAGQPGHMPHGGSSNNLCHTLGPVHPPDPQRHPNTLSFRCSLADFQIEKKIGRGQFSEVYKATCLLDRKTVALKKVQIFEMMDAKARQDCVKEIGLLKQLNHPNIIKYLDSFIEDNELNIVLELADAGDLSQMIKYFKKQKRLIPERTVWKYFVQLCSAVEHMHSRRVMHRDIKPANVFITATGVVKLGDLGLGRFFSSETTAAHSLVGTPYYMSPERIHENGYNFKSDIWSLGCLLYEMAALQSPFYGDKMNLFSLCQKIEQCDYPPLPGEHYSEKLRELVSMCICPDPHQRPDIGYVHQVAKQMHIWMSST

C[C@H](NC(=O)Nc1cc2[nH]ncc2c(CO)n1)c1ccccn1 [ERKi-NC]
residual activity [1, 44]: 42.4% | residual activity [2, 44]: 90.7% | residual activity [3, 44]: 100% | residual activity [4, 44]: 100% | residual activity [5, 44]: 100% | residual activity [6, 44]: 100% | inhibition [7]: 7.64% | residual activity [8, 44]: 100% | residual activity [9, 44]: 69.9% | residual activity [10, 44]: 100% | inhibition [11]: 1.42% | residual activity [12, 44]: 77.9% | residual activity [13, 44]: 89.6% | residual activity [14, 44]: 100% | residual activity [15, 44]: 91.9% | residual activity [16, 44]: 100% | residual activity [17, 44]: 100% | residual activity [18, 44]: 46.8% | residual activity [19, 44]: 76.1% | residual activity [20, 44]: 78.8% | residual activity [21, 44]: 100% | residual activity [22, 44]: 81% | residual activity [23, 44]: 100% | residual activity [24, 44]: 100% | inhibition [25]: 20.2% | residual activity [26, 44]: 88% | residual activity [27, 44]: 85.1% | residual activity [28, 44]: 100% | residual activity [29, 44]: 95.1% | residual activity [30, 44]: 100% | residual activity [31, 44]: 100% | residual activity [32, 44]: 79.8% | residual activity [33, 44]: 85.4% | residual activity [34, 44]: 78% | residual activity [35, 44]: 93.1% | residual activity [36, 44]: 76.7% | residual activity [37, 44]: 96.4% | residual activity [38, 44]: 100% | residual activity [39, 44]: 100% | residual activity [40, 44]: 100% | residual activity [41, 44]: 100% | residual activity [42, 44]: 100% | residual activity [43, 44]: 88.7%

C[C@@H](NC(=O)Nc1cc2[nH]ncc2c(CO)n1)c1ccccc1 [ERKi]
residual activity [1, 45]: 77% | residual activity [2, 45]: 100% | residual activity [3, 45]: 89.7% | residual activity [4, 45]: 47.3% | residual activity [5, 45]: 84.5% | residual activity [6, 45]: 96.6% | inhibition [7]: 7.44% | residual activity [8, 45]: 72.3% | residual activity [9, 45]: 94.7% | residual activity [10, 45]: 77.1% | inhibition [11]: -2.72% | residual activity [12, 45]: 95.8% | residual activity [13, 45]: 100% | residual activity [14, 45]: 100% | residual activity [15, 45]: 82.1% | residual activity [16, 45]: 94.1% | residual activity [17, 45]: 91.9% | residual activity [18, 45]: 79.6% | residual activity [19, 45]: 40.8% | residual activity [20, 45]: 81.1% | residual activity [21, 45]: 64.5% | residual activity [22, 45]: 77.7% | residual activity [23, 45]: 61.2% | residual activity [24, 45]: 100% | inhibition [25]: 46.2% | residual activity [26, 45]: 95.2% | residual activity [27, 45]: 96.2% | residual activity [28, 45]: 83.2% | residual activity [29, 45]: 100% | residual activity [30, 45]: 88.5% | residual activity [31, 45]: 84.6% | residual activity [32, 45]: 100% | residual activity [33, 45]: 76.7% | residual activity [34, 45]: 94.1% | residual activity [35, 45]: 71.8% | residual activity [36, 45]: 78.6% | residual activity [37, 45]: 100% | residual activity [38, 45]: 94.6% | residual activity [39, 45]: 95.8% | residual activity [40, 45]: 98.9% | residual activity [41, 45]: 84% | residual activity [42, 45]: 76.7% | residual activity [43, 45]: 60.8%
